Results on four molecules are retold here after US9259408B2, “Use of DHA, EPA or DHA-derived EPA for treating a pathology associated with cellular oxidative damage” (Brudy Technology S.L., priority 2005, dated 2016).

Test [1] relates to Foreskin cells. Description: Lipidic peroxides (TBARS/MDA) in Foreskin cells. It counts as cell-based, human. The conditions noted are these: 40 mM AAPH; 50 μM DHA-TG. As for the experimental part:
The measurement of malonildialdehyde (MDA) on cell lysates was used as a marker of lipidic peroxidation by UV-Vis spectrophotometry. The MDA and the 4-hydroxyalkenals (HAE) are products derived from the peroxidation of polyunsaturated fatty acids and related esters. Direct measurements of these aldehydes constitutes a convenient index of lipidic peroxidation. A chromogenic reagent (N-methyl-2-phenyl-indole in acetonitrile) which reacts with the MDA at 45° C. was employed, using the commercial lipidic peroxidation kit from Calbiochem (No. 437634). The condensation of one molecule of MDA with two molecules of the chromogenic reagent gives a stable chromophore with maximum absorbance at 586 nm, with the detection limit being 0.1 μM. The induction was carried out for 6 h with 40 mM AAPH and 24 hours of latency. The cells (10^7 cells/mL) were lysed by means of cycles of freezing and thawing in liquid N2. The samples were fractionated in order to measure MDA and protein. The results were expressed in μM of MDA/mg of protein.

Test [2] concerns ARPE-19 cells (retina pigmentary epithelial cells, CRL-2302). Description: ROS generation in ARPE-19 cells under AAPH oxidative stress (DHR123/H2DCFDA). It counts as cell-based. The method, then:
(§1) The cellular models used were Foreskin cells (undifferentiated epidermal fibroblasts, CRL-2076) and ARPE-19 cells (retina pigmentary epithelial cells, CRL-2302) obtained from the American Type Culture Collection. The cell cultures were kept in suitable growth conditions of temperature (37° C.), CO2 concentration (5%) and humidity (95%) in an incubator specially designed for this purpose. The ARPE-19 cells were maintained in growth up to confluence of 0.3×10^4 cells/cm^2 in culture flasks with DMEM-F12 medium (Biological Industries) supplemented with 10% bovine foetal serum, penicillin antibiotics (100 U/mL), streptomycin (100 μg/mL) and glutamine (Biological Industries). […]
(§2) The ROS level was measured in primary cultures of human skin CRL-2076 fibroblasts and in ARPE-19 retinal epithelial cells by employing the fluorimetric technique using dihydrorodamine 123 (DHR123, Molecular Probes) and 2,7-dichlorofluorescein diacetate (H2DCFDA, Molecular Probes) as fluorescent probes in a continuous system measuring every 30 min until 180 minutes. […] The fluorescence of the oxidised probes (2,7-dichlorofluorescein and rodamine 123) was measured in a Mithras fluorescence reader at an excitation wavelength of 488 nm and an emission wavelength of 525 nm in function of the time. […]

Test [3] concerns Foreskin cells. As to the kind of experiment: Superoxide anion generation (luminol chemiluminescence) in Foreskin cells. In kind it is cell-based, human. The conditions noted are these: 40 mM AAPH, with or without DHA; 10 mM Tyron or 0.1875 UA/μl exogenous SOD. The method, then: Direct measurement of the superoxide anion was carried out by means of the chemiluminescence technique on microplate measured by luminol (Calbiochem, No. 574590). Chemiluminescence for detecting the superoxide anion is a technique used due to its potential for gaining access to all the intracellular sites of superoxide generation, due to the high specificity of the reaction with luminol, the minimal intracellular toxicity and the increased sensitivity in relation to other chemical techniques. It is based on the superoxide anion oxidising luminol in a reaction that produces photons of light which are quickly measured on a standard illuminometer. In our tests we used a chemiluminescence reader on microplate from ELISA, MITHRAS and furthermore, given the short half-life of the radical, an enhancer was used to increase the sensitivity of the test and amplify the response. […] The chemiluminescence measurement in the cells submitted to the AAPH oxidative stress inducing treatment was analysed every […] for a total time of 4100 seconds, at a frequency of 120 sec/cycle. […]

Test [4] deals with Foreskin cells (undifferentiated epidermal fibroblasts, CRL-2076). Description: ROS generation in Foreskin cells under xanthine/xanthine oxidase oxidative stress (CDCFDA). The conditions noted are these: 100 μM Vitamin E. It counts as cell-based, human. The method, then: as §1, §2

As to `CC/C=C\C/C=C\C/C=C\C/C=C\C/C=C\C/C=C\CCC(=O)O` [DHA, docosahexaenoic acid], in test [1], the “protection against lipidic peroxides (TBARS)” value came to 48%.

Take `CCCCS(=N)(=O)CCC(N)C(=O)O` (stereo not shown) [BSO, Buthionine sulfoximine, reference compound]: in test [2], the “effect of addition of BSO on the protective effect of DHA” value is recorded as “eliminates the protective effect of DHA”.

For the molecule `O=S(=O)(O)c1cc(O)c(O)c(S(=O)(=O)O)c1` [Tyron, 4,5-dihydroxy-1,3-benzene disulphonic acid, reference compound], in test [3], the “production of superoxide anion in cells stressed with AAPH” value is on record as “totally inhibited”.

With vitamin E [reference compound], in test [4], the “inhibition of cellular oxidation” value is on record as 30%.
